By GI50 is commonly meant the concentration at which growth is held to half of that of the control.

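Following 48 hours of exposure in 96-well plates, responses at five concentrations were used to interpolate endpoints linearly. Here, GI50 denotes the concentration required for 50% inhibition of growth.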 Active and inactive are the calls of the source. Cut-off read from the data, not from the text of the source: active = GI50 up to about 1.1 µM and inactive = higher.

The source of these data is ChEMBL document CHEMBL1201862, “PubChem BioAssay data set” (2004).

Test systems include SK-OV-3; HCC 2998; A498; SK-MEL-5; ACHN; SN12C; RXF 393; MDA-MB-435; UO-31; OVCAR-4; NCI-H226; NCI-H23; MDA-MB-231; HOP-92; UACC-62; UACC-257; SK-MEL-2; MCF7; COLO 205; HCT-116.
What all share (assay): DTP human tumour cell line panel, 48 h

In the case of `CN1CCCOC(c2ccc(Cl)cc2)O1` (stereo not given), the GI50 in the test on SK-OV-3, with HCC 2998, in the test on A498, in the test with SK-MEL-5, with ACHN and in the test on SN12C was > 100 µM (inactive) each time. The GI50 in the test on RXF 393, in the test on MDA-MB-435, in the test on UO-31, in the test with OVCAR-4, in the test with NCI-H226 and in the test with NCI-H23 was > 100 µM (inactive) each time. The GI50 with MDA-MB-231 is > 100 µM (inactive); with HOP-92, 65 µM (inactive); with UACC-62, > 100 µM (inactive); with UACC-257 it was > 100 µM (inactive); with SK-MEL-2, > 100 µM (inactive); in the test on MCF7 it was > 100 µM (inactive). Further, the GI50 in the test with COLO 205 and in the test with HCT-116 was > 100 µM (inactive) throughout.
Turning to `Cn1ccnc1Oc1ccc(Cl)cc1`, the GI50 is 47.4 µM (inactive) in the test with SK-OV-3; 4.57 µM (inactive) in the test on HCC 2998; 16.9 µM (inactive) in the test with A498; 14.1 µM (inactive) in the test with SK-MEL-5; 12.8 µM (inactive) in the test with ACHN; 13.6 µM (inactive) in the test with SN12C. In addition, the GI50 in the test with RXF 393 is 16.9 µM (inactive); in the test with MDA-MB-435 it was 12.4 µM (inactive); in the test with UO-31 it was 11.7 µM (inactive); in the test with OVCAR-4, 6.12 µM (inactive); in the test on NCI-H226, 13 µM (inactive); in the test on NCI-H23, 17.5 µM (inactive). In addition, the GI50 in the test on MDA-MB-231 is 14.8 µM (inactive); in the test with HOP-92, 11 µM (inactive); in the test on UACC-62, 11.1 µM (inactive); in the test on UACC-257, 9.75 µM (inactive); in the test on SK-MEL-2, 16.4 µM (inactive); with MCF7 it was 12 µM (inactive). For the same compound, the GI50 is 13 µM (inactive) with COLO 205 and 12 µM (inactive) in the test on HCT-116.
For `CN(C)Cc1cc(/N=N/c2ccc(Cl)cc2)ccc1O`, the GI50 in the test on SK-OV-3 is 18.7 µM (inactive); in the test with HCC 2998 it was 14.6 µM (inactive); in the test with A498 it was 16.4 µM (inactive); in the test with SK-MEL-5 it was 14.4 µM (inactive); with ACHN, 15.3 µM (inactive); in the test with SN12C, 16.9 µM (inactive). Besides, the GI50 in the test on RXF 393 is 13.9 µM (inactive); in the test with MDA-MB-435, 16.7 µM (inactive); with UO-31, 11.7 µM (inactive); in the test on OVCAR-4, 16.5 µM (inactive); in the test on NCI-H226, 14.6 µM (inactive); in the test on NCI-H23 it was 23 µM (inactive). The GI50 is 16.1 µM (inactive) with MDA-MB-231; 4.46 µM (inactive) with HOP-92; 16 µM (inactive) in the test on UACC-62; 18.7 µM (inactive) in the test on UACC-257; 21.3 µM (inactive) in the test with SK-MEL-2; 17.4 µM (inactive) in the test on MCF7. The GI50 is 3.81 µM (inactive) in the test with COLO 205 and 16.7 µM (inactive) in the test with HCT-116.
`CCN1/C(=C/c2ccc3ccccc3[n+]2CC)C=Cc2ccccc21`: the GI50 was 2.18 µM (inactive) in the test on SK-OV-3; 0.482 µM (active) with HCC 2998; 2.13 µM (inactive) with A498; 0.329 µM (active) in the test with SK-MEL-5; 2.33 µM (inactive) in the test with ACHN; 0.649 µM (active) in the test with SN12C. Besides, the GI50 in the test with RXF 393 was 2.12 µM (inactive); in the test with MDA-MB-435, 0.316 µM (active); in the test on UO-31 it was 3.09 µM (inactive); in the test with OVCAR-4, 0.617 µM (active); in the test on NCI-H226, 1.66 µM (inactive); in the test on NCI-H23 it was 0.551 µM (active). The GI50 was 1.77 µM (inactive) with MDA-MB-231; 1.44 µM (inactive) in the test with HOP-92; 0.767 µM (active) in the test on UACC-62; 0.18 µM (active) with UACC-257; 0.687 µM (active) in the test with SK-MEL-2; 0.367 µM (active) with MCF7. The GI50 with COLO 205 is 0.19 µM (active); in the test with HCT-116 it was 0.509 µM (active).
With `[N-]=[N+]=Nc1c(Cc2ccccc2)c(Cl)nc2ccccc12`, the GI50 was 53 µM (inactive) in the test with SK-OV-3; 49.4 µM (inactive) with HCC 2998; 26.2 µM (inactive) in the test on A498; 15.4 µM (inactive) in the test on SK-MEL-5; 25.1 µM (inactive) with ACHN; 23.6 µM (inactive) in the test with SN12C. Moreover, the GI50 in the test on RXF 393 is 15.7 µM (inactive); in the test on MDA-MB-435 it was 13.6 µM (inactive); with UO-31, 28.6 µM (inactive); with OVCAR-4, 42 µM (inactive); with NCI-H226, 16 µM (inactive); in the test with NCI-H23, 28.8 µM (inactive). In addition, the GI50 was 18.7 µM (inactive) in the test on MDA-MB-231; 20.2 µM (inactive) with HOP-92; 22.6 µM (inactive) in the test on UACC-62; 33.5 µM (inactive) in the test with UACC-257; 16.6 µM (inactive) in the test with SK-MEL-2; 21.3 µM (inactive) in the test on MCF7. The GI50 in the test with COLO 205 was 15.1 µM (inactive); in the test on HCT-116, 17.5 µM (inactive).
Regarding `O=C1NC(=S)N/C1=C\c1ccc(Br)s1`, the GI50 was > 100 µM (inactive) in the test with SK-OV-3; 57.8 µM (inactive) in the test with HCC 2998; 34.3 µM (inactive) in the test on A498; 39.8 µM (inactive) in the test on SK-MEL-5; > 100 µM (inactive) in the test on ACHN; > 100 µM (inactive) with SN12C. Further, the GI50 in the test on RXF 393 was > 100 µM (inactive); in the test with MDA-MB-435, 58.6 µM (inactive); in the test on UO-31, 55.2 µM (inactive); in the test with OVCAR-4, 53.1 µM (inactive); with NCI-H226, 84.9 µM (inactive); with NCI-H23, > 100 µM (inactive). The GI50 in the test with MDA-MB-231 is > 100 µM (inactive); in the test with HOP-92 it was 82 µM (inactive); in the test with UACC-62, 28 µM (inactive); in the test on UACC-257 it was 61 µM (inactive); with SK-MEL-2, 99.8 µM (inactive); in the test on MCF7, > 100 µM (inactive). The GI50 with COLO 205 and in the test with HCT-116 was > 100 µM (inactive) each time.
For `[N-]=[N+]=Nc1ccc2c(c1)Sc1ccccc1N2CCCCN1CCN(C(=O)CCNC(=O)Cc2ccc(C(=O)c3ccccc3)cc2)CC1`, the GI50 with SK-OV-3 was 27.9 µM (inactive); with HCC 2998, 2.53 µM (inactive); in the test on A498 it was 10 µM (inactive); in the test on SK-MEL-5, 2.11 µM (inactive); in the test on ACHN, 3.61 µM (inactive); in the test on SN12C, 7.26 µM (inactive). For the same compound, the GI50 in the test on RXF 393 is 10.9 µM (inactive); in the test on MDA-MB-435, 2.2 µM (inactive); in the test with UO-31 it was 5.32 µM (inactive); in the test on OVCAR-4, 3.48 µM (inactive); with NCI-H226, 13.6 µM (inactive); with NCI-H23, 4.78 µM (inactive). Besides, the GI50 with MDA-MB-231 was 4.74 µM (inactive); in the test on HOP-92 it was 6.71 µM (inactive); in the test on UACC-62 it was 6.05 µM (inactive); in the test with UACC-257, 4.05 µM (inactive); with SK-MEL-2 it was 4.29 µM (inactive); with MCF7, 2.33 µM (inactive). Besides, the values for the GI50 with COLO 205 and with HCT-116 were 3.39 µM (inactive) and 3.54 µM (inactive), respectively.
With `Cc1cc(O)nc2cc3oc4ccccc4c3cc12`, the GI50 is > 57.9 µM (inactive) with SK-OV-3; 2.72 µM (inactive) with HCC 2998; > 100 µM (inactive) with A498; 7.52 µM (inactive) in the test with SK-MEL-5; 24.2 µM (inactive) in the test on ACHN; > 100 µM (inactive) in the test on SN12C. For the same compound, the GI50 was > 100 µM (inactive) in the test on RXF 393; > 88.1 µM (inactive) in the test with MDA-MB-435; > 27.5 µM (inactive) with UO-31; > 62.2 µM (inactive) in the test on OVCAR-4; 15.7 µM (inactive) with NCI-H226; > 68.5 µM (inactive) with NCI-H23. The GI50 in the test on MDA-MB-231 is 52 µM (inactive); in the test on HOP-92, > 100 µM (inactive); in the test with UACC-62, 17.5 µM (inactive); with UACC-257 it was > 50.2 µM (inactive); with SK-MEL-2, > 100 µM (inactive); in the test with MCF7, 4.55 µM (inactive). The GI50 is 16.7 µM (inactive) with COLO 205 and 27.5 µM (inactive) in the test with HCT-116.
Turning to `O=C(O)CCCc1ccc(N(CCCl)CCCl)cc1` [CHLORAMBUCIL], the GI50 with SK-OV-3 is 110 µM (inactive); in the test with HCC 2998, 103 µM (inactive); with A498, 125 µM (inactive); in the test on SK-MEL-5, 88.5 µM (inactive); with ACHN, 14.4 µM (inactive); in the test on SN12C it was 35.5 µM (inactive). Further, the GI50 was 33.2 µM (inactive) with RXF 393; 126 µM (inactive) with MDA-MB-435; 70.1 µM (inactive) in the test on UO-31; 136 µM (inactive) in the test with OVCAR-4; 95.7 µM (inactive) with NCI-H226; 26.6 µM (inactive) in the test with NCI-H23. In addition, the GI50 with MDA-MB-231 is 156 µM (inactive); in the test on HOP-92, 63.7 µM (inactive); with UACC-62, 20 µM (inactive); in the test with UACC-257, 93.5 µM (inactive); in the test with SK-MEL-2, 155 µM (inactive); in the test on MCF7 it was 32.8 µM (inactive). Further, the GI50 is 115 µM (inactive) in the test on COLO 205 and 106 µM (inactive) in the test with HCT-116.
For `CC1(C)[C@H]2CC[C@]1(C)[C@H](OC(=O)NNC(=O)O[C@@H]1C[C@@H]3CC[C@@]1(C)C3(C)C)C2`, the GI50 in the test with SK-OV-3 was 14.3 µM (inactive); in the test on HCC 2998 it was 14.1 µM (inactive); in the test on A498, 16.3 µM (inactive); in the test on SK-MEL-5, 12.6 µM (inactive); in the test on ACHN, 18.7 µM (inactive); in the test with SN12C, 12.2 µM (inactive). The GI50 is 10.6 µM (inactive) in the test on RXF 393; 21.2 µM (inactive) in the test with MDA-MB-435; 15 µM (inactive) in the test on UO-31; 11.4 µM (inactive) in the test on OVCAR-4; 16.7 µM (inactive) with NCI-H226; 14.9 µM (inactive) with NCI-H23. Moreover, the GI50 in the test with MDA-MB-231 was 13 µM (inactive); in the test on HOP-92 it was 15.1 µM (inactive); in the test with UACC-62, 17.4 µM (inactive); with UACC-257, 16.3 µM (inactive); in the test on SK-MEL-2, 16.8 µM (inactive); in the test with MCF7, 10.9 µM (inactive). Besides, the GI50 with COLO 205 was 12.3 µM (inactive); in the test on HCT-116 it was 10.9 µM (inactive).
